# Tests used:
# Type in all cases: in vivo
# [1] = tested on: large (Lg) crabgrass (Digitaria sanguinalis); assay: Test B pre-/postemergence plant response
# Summary of the method: (§1)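 Ratings reflect visual injury versus untreated controls, from 0 for no effect to 100 for complete control, assessed roughly 10 days after treatment. Formulation: non-phytotoxic solvent mix with surfactant; pre- and postemergence sprays on plants grown in loam soil and sand.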
# [2] = tested on: pigweed (Amaranthus retroflexus); assay: Test B pre-/postemergence plant response
# Summary of the method: as §1
# [3] = tested on: giant foxtail (Setaria faberii); assay: Test B pre-/postemergence plant response
# Summary of the method: as §1
# [4] = tested on: velvetleaf (Abutilon theophrasti); assay: Test B pre-/postemergence plant response
# Summary of the method: as §1
# [5] = tested on: wheat (Triticum aestivum); assay: Test B pre-/postemergence plant response
# Summary of the method: as §1
# corn (Zea mays) = assay: Test B pre-/postemergence plant response
# Summary of the method: as §1
# [6] = tested on: barnyardgrass (Echinochloa crus-galli); assay: Test B pre-/postemergence plant response
# Summary of the method: as §1
# rice (Oryza sativa) = assay: Test C flooded paddy test plant response; conditions: Flood, 250 g ai/ha; scale of 0 to 100 where 0 is no effect and 100 is complete control; 13 to 15 days
# Summary of the method: (§2)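 Two-leaf stage → flood to 3 cm → compound into water → hold depth, greenhouse 13–15 d → visual score vs controls (0 none, 100 complete control).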
# [7] = tested on: barnyardgrass (Echinochloa crus-galli); assay: Test C flooded paddy test plant response; conditions: Flood, 250 g ai/ha; scale of 0 to 100 where 0 is no effect and 100 is complete control; 13 to 15 days
# Summary of the method: as §2
# [8] = tested on: small-flower umbrella sedge (Cyperus difformis); assay: Test C flooded paddy test plant response; conditions: Flood, 250 g ai/ha; scale of 0 to 100 where 0 is no effect and 100 is complete control; 13 to 15 days
# Summary of the method: as §2
# [9] = tested on: ducksalad (Heteranthera limosa); assay: Test C flooded paddy test plant response; conditions: Flood, 250 g ai/ha; scale of 0 to 100 where 0 is no effect and 100 is complete control; 13 to 15 days
# Summary of the method: as §2
# [10] = 125 g ai/ha, postemergence, 0 to 100 scale, 0 no effect, 100 complete control
# [11] = Postemergence, 500 g ai/ha, 0 to 100 scale (0 no effect, 100 complete control)
# [12] = Preemergence, 125 g ai/ha, 0 to 100 scale where 0 is no effect and 100 is complete control
# [13] = Preemergence, 500 g ai/ha, 0 to 100 scale (0 no effect, 100 complete control)
Structure (SMILES),"Plant response rating, Crabgrass, Large [1, 10]","Plant response rating, Crabgrass, Large [1, 11]","Plant response rating, Crabgrass, Large [1, 12]","Plant response rating, Crabgrass, Large [1, 13]","Plant response rating, Pigweed [2, 10]","Plant response rating, Pigweed [2, 11]","Plant response rating, Pigweed [2, 12]","Plant response rating, Pigweed [2, 13]","Plant response rating, Foxtail, Giant [3, 10]","Plant response rating, Foxtail, Giant [3, 11]","Plant response rating, Foxtail, Giant [3, 12]","Plant response rating, Foxtail, Giant [3, 13]","Plant response rating, Velvetleaf [4, 10]","Plant response rating, Velvetleaf [4, 11]","Plant response rating, Velvetleaf [4, 12]","Plant response rating, Velvetleaf [4, 13]","Plant response rating, Wheat [5, 10]","Plant response rating, Wheat [5, 11]","Plant response rating, Wheat [5, 12]","Plant response rating, Wheat [5, 13]",further results
Clc1cnc(Oc2ccccc2-c2cccc(Cl)n2)nc1 [Compound 16],0,0,0,10,0,30,0,20,0,0,0,10,0,20,0,20,0,0,0,0,"Plant response rating, Corn (corn (Zea mays); [10]): 0; Plant response rating, Corn (corn (Zea mays); [11]): 0; Plant response rating, Corn (corn (Zea mays); [12]): 0; Plant response rating, Corn (corn (Zea mays); [13]): 0; Plant response rating, Barnyardgrass [6, 10]: 0; Plant response rating, Barnyardgrass [6, 11]: 0; Plant response rating, Barnyardgrass [6, 12]: 0; Plant response rating, Barnyardgrass [6, 13]: 0; Rice plant response rating (rice (Oryza sativa)): 0; Barnyardgrass plant response rating [7]: 0; Sedge, Umbrella plant response rating [8]: 0; Ducksalad plant response rating [9]: 0"
Clc1cccc(-c2ccccc2Oc2ncc(Br)cn2)n1 [Compound 17],0,0,0,10,0,10,0,0,0,0,0,0,0,20,0,10,0,0,0,0,"Plant response rating, Corn (corn (Zea mays); [10]): 0; Plant response rating, Corn (corn (Zea mays); [11]): 0; Plant response rating, Corn (corn (Zea mays); [12]): 0; Plant response rating, Corn (corn (Zea mays); [13]): 0; Plant response rating, Barnyardgrass [6, 10]: 0; Plant response rating, Barnyardgrass [6, 11]: 0; Plant response rating, Barnyardgrass [6, 12]: 0; Plant response rating, Barnyardgrass [6, 13]: 0; Rice plant response rating (rice (Oryza sativa)): 0; Barnyardgrass plant response rating [7]: 0; Sedge, Umbrella plant response rating [8]: 0; Ducksalad plant response rating [9]: 0"
